In patent US20190269132A1 (ROHM AND HAAS COMPANY, priority 2016, published 2019):

Tested on: Chlorella sp. ATCC 7516
Assay: Algal efficacy testing of dry paint films (modified ASTM 5589, 6-well plates)
Format: cell-based
Protocol: These paints were then diluted with a biocide free acrylic/silicone based paint and mixed to prepare targeted concentrations of biocide combinations for the testing. The total biocides concentrations obtained were 125, 250, 500, 1000, 2000 and 5000 ppm. After biocides addition or dilution, the paints were mixed 90 seconds with the horse power shaker (AXEL 75M3372/Agitateur SO-10MI) until uniformity was achieved. […] After one day, the paints were applied to Schleicher & Schuell filter paper at 280 μm wet film thickness and dried for 3 days at room temperature avoiding direct exposure to sunlight. Square discs (1.8 cm×1.8 cm) were cut out from each panel and were used as the substrate for algal efficacy tests. This sample size allowed for an agar border when the sample disc was placed into the well of the test plate.
Algal efficacy was tested according to modified ASTM 5589 which is a standard accelerated test method for determining resistance of various coatings (including paints) to algal defacement. To accommodate for high-throughput screening, this method was scaled down from petri plates to 6-well plates. Bold Modified Basal Freshwater Nutrient Solution was used as growth medium for the algal culture and Bold's agar was used for the efficacy testing. A single coupon was placed with a pair of sterile forceps at the center of the agar plug (on top) with the painted surface facing upwards. The algal inoculum was prepared by diluting an exponentially growing culture of Chlorella sp. to 1×10^6 cfu/ml.
Each well that contains a tested coupon was inoculated with 1750 μl of algal suspension (1×10^6 cfu/ml) making sure that the whole surface (paint film as well as the agar surrounding it) was evenly covered. The plates were incubated at room temp (21° C.-25° C.) with cyclic exposure to 14 hours fluorescent light followed by 10 hours darkness, for a period of three weeks.
At the end of the incubation period the samples were scored for percent inhibition regarding color intensity compared to the blank sample
The SI is calculated based on F. C. Kull et. […]

Row | Structure (SMILES) | inhibition at 5000 ppm (504 h, Chlorella, total conc 5000 ppm in paint, three weeks, colour intensity vs blank) [%] | Total conc, ppm (lowest total biocide concentration in paint reaching pass level of 75% inhibition) (Chlorella sp., acrylic/silicone paint film on filter paper, three weeks incubation, pass level ≥75% inhibition) [ppm] | % inhibition (Chlorella, total conc 1′000 ppm in paint, three weeks, colour intensity vs blank) [%]
1 | O=c1[nH]sc2ccccc12 [BIT, 1,2-benzisothiazol-3(2H)-one] | 95 | 5000 | 
2 | O=c1[nH]c2c(c(=O)n1C1CCCCC1)CCC2 [LENACIL, 3-Cyclohexyl-6,7-dihydro-1H-cyclopentapyrimidine-2,4-(3H,5H)-dione] |  |  | 90
